Test results reported in PubChem BioAssay (NCI).
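Step 1: Grow cells in 96-well plates. Step 2: Expose to compound for 48 hours at 5 concentrations. Step 3: Interpolate endpoints linearly; if unreached, use highest concentration. Abbreviation: GI50, concentration required for 50% inhibition of growth. Definition used: TGI = concentration required for complete inhibition of growth.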

Legend:
Assay in all cases: NCI anticancer screen, dose series, 48 h
HCC-2998 colon = tested on: HCC-2998 colon
SF-268 CNS = tested on: SF-268 CNS
UACC-62 melanoma = tested on: UACC-62 melanoma
SN12C renal = tested on: SN12C renal
UO-31 renal = tested on: UO-31 renal
NCI-H522 lung = tested on: NCI-H522 lung
786-0 renal = tested on: 786-0 renal
SK-OV-3 ovarian = tested on: SK-OV-3 ovarian
NCI-H226 lung = tested on: NCI-H226 lung
U251 CNS = tested on: U251 CNS

SMILES | GI50 (HCC-2998 colon) [µM] | TGI (HCC-2998 colon) [µM] | GI50 (SF-268 CNS) [µM] | TGI (SF-268 CNS) [µM] | GI50 (UACC-62 melanoma) [µM] | TGI (UACC-62 melanoma) [µM] | GI50 (SN12C renal) [µM] | TGI (SN12C renal) [µM] | GI50 (UO-31 renal) [nM] | TGI (UO-31 renal) [µM] | GI50 (NCI-H522 lung) [nM] | TGI (NCI-H522 lung) [µM] | GI50 (786-0 renal) [nM] | TGI (786-0 renal) [µM] | GI50 (SK-OV-3 ovarian) [µM] | TGI (SK-OV-3 ovarian) [µM] | GI50 (NCI-H226 lung) [µM] | TGI (NCI-H226 lung) [µM] | GI50 (U251 CNS) [µM] | TGI (U251 CNS) [µM]
Oc1ccc(Cc2ccc(O)c(C3CC(c4ccc(Cl)cc4)=NN3)c2)cc1C1CC(c2ccc(Cl)cc2)=NN1 (stereo not given) | 3.71 | > 30.8 | 3.32 | 27.2 | 3.14 | 13.4 | 2.79 | > 37.3 | 3070 | > 100 | 2560 | 9.88 | 3530 | > 40.2 | 3.61 | > 100 | 4.29 | > 44.3 | 2.06 | 33.6
N#CC(/C(=N/NC(N)=S)C(=O)Nc1cccc(Cl)c1)c1ccccc1 (stereo not given) |  | > 100 |  | > 100 |  | > 100 |  | > 100 |  | > 100 |  | > 100 |  | > 100 |  | > 100 |  | > 100 |  | > 100
CN(CSc1ccc(Cl)cc1)c1ccc(CSc2ccc(Cl)cc2)cc1 | 4.81 | 18.3 | 1.46 | 10.4 | 3.82 | 15.8 | 1.82 | 15.9 | 1060 | 4.18 | 1190 | 6.88 | 1800 | 11 | 7.9 | 23.4 | 2.16 | 6.67 | 6.87 | 23.5
O=C(Nc1ccc(I)cc1)c1cccc([N+](=O)[O-])c1O | 4.19 | 44.3 | 4.15 | > 100 | 3.77 | 24 | 3.54 | > 100 | 2020 | 8.49 | 2610 | 31.1 | 3530 | 24.2 | 3.05 | 44.9 | 2.81 | 33.5 | 3.39 | > 100
CC(C)OCc1cc(CN2CCN(c3cccc(Cl)c3)CC2)c(O)c2ncccc12 | 0.92 | 11.3 | 0.629 | 14.7 | 0.333 | 1.43 | 0.917 | 15.6 | 240 | 1.38 | 300 | 2.26 | 785 | 9.56 | 0.71 | 12.2 | 1.39 | 6.56 | 0.423 | 11.9
O=c1nc(N2CCCC2)nc(N2CCCC2)s1 |  | > 100 |  | > 100 |  | > 100 |  | > 100 |  | > 100 |  | > 100 |  | > 100 |  | > 100 |  | > 100 |  | > 100
NS(=O)(=O)c1ccc(N=C2C(=O)Nc3ccccc32)cc1 |  | > 100 |  | > 100 |  | > 100 |  | > 100 |  | > 100 |  | > 100 |  | > 100 |  | > 100 |  | > 100 |  | > 100
Cc1ccc(NC(=O)/C(=N\NC(N)=S)C(C#N)c2ccccc2C)cc1C (stereo not given) |  | > 100 |  | > 100 |  | > 100 |  | > 100 |  | > 100 |  | > 100 |  | > 100 |  | > 100 |  | > 100 |  | > 100
c1ccc(-c2cn(-c3ccccc3)c(-c3ccccc3)n2)cc1 | 7.82 | 20.6 | 14.8 | 29.5 | 15.3 | 29.8 | 15.4 | 30.6 | 11000 | 22.9 | 13300 | 27.2 | 2300 | 4.67 | 19.3 | 34 | 19.8 | 37.7 | 4.08 | 15.9
C=C1c2[nH]c3ccccc3c2CC(C(=O)O)N1C(O)c1ccc(S(=O)(=O)O)cc1 (stereo not given) |  | > 100 |  | > 100 |  | > 100 |  | > 100 |  | > 100 |  | > 100 |  | > 100 |  | > 100 |  | > 100 |  | > 100
COC1=CC(=O)OC(/C=C(C)/C=C/C2=C(C)CCCC2(C)C)C1 (stereo not given) |  | > 100 |  | > 100 |  | > 100 |  | > 100 |  | > 100 |  | > 100 |  | > 100 |  | > 100 |  | > 100 |  | > 100
N#Cc1ccc(C(C2C(=O)NC(=O)NC2=O)C2C(=O)NC(=O)NC2=O)cc1 |  | > 100 |  | > 100 |  | > 100 |  | > 100 |  | > 100 |  | > 100 |  | > 100 |  | > 100 |  | > 100 |  | > 100
NC(=S)N/N=C(\CCC(=O)Nc1ccccc1[N+](=O)[O-])CC(=O)c1ccco1 |  | > 100 |  | > 100 |  | > 100 |  | > 100 |  | > 100 |  | > 100 |  | > 100 |  | > 100 |  | > 100 |  | > 100
C=C(CN1CCN(c2ccccc2C(F)(F)F)CC1)c1ccc(C(=O)Nc2ccccc2N)cc1 | 3.83 | 13.9 | 4.55 | > 47 | 9.16 | > 93.7 | 6.43 | 23.9 | 1000 | > 60.3 | 1910 | > 28.1 | 2360 | 15.1 | 11 | > 100 | 7.79 | 48.1 | 4.64 | > 68.1
CC(C)(CN1CCCCC1)C(=O)CC(SCCN)c1ccc(Cl)cc1 (stereo not given) |  | 3.76 |  | 9.36 |  | 3.56 |  | 3.42 |  | 13.3 |  | 4.8 |  | 3.21 |  | 7.83 |  | 10.1 |  | 11.7
CCc1cccc(CC)c1NC(=O)CC1SC(N)=NC1=O (stereo not given) |  | > 100 |  | > 100 |  | > 100 |  | > 100 |  | > 100 |  | > 100 |  | > 100 |  | > 100 |  | > 100 |  | > 100
CCN(CC)CC(O)COc1c(Br)c(Br)c(Br)c2c1OC(C)(C)C2 (stereo not given) | 3.42 | 9.23 | 8.35 | 26.3 | 1.9 | 3.47 | 6.22 | 19.8 | 5820 | 26.5 | 3420 | 14.4 | 3130 | 11.9 | 16.7 | 36.4 | 13.5 | 40.9 | 4.48 | 14.8
O=C(Cc1ccccc1)NN1C(=O)C(Cl)C1c1cccc([N+](=O)[O-])c1 (stereo not given) |  | > 100 |  | > 100 |  | > 100 |  | > 100 |  | > 100 |  | 3.64 |  | > 84.4 |  | > 100 |  | > 90.1 |  | > 100
COc1ncc(-c2ccc3nccc(C#CCN4CCN(S(C)(=O)=O)CC4)c3c2)cc1NS(=O)(=O)c1ccc(F)cc1F | 0.0635 | 1.25 | 0.0985 | 3.93 | 0.0342 | 0.307 | 0.124 | 11.7 | 27.4 | 3.73 | 154 | 1.77 | 52.2 | 3.56 | 0.0175 | 0.168 | 0.298 | 2.27 | 0.211 | 1.75
CC(=O)SC(SC(C)=O)SC(C)=O |  | > 100 |  | > 100 |  | > 100 |  | > 100 |  | > 100 |  | 45.2 |  | > 100 |  | > 100 |  | > 100 |  | > 100
CC(=O)OCC1OC([Se-])C(OC(C)=O)C(OC(C)=O)C1OC(C)=O.N#CCC[PH+](CCC#N)CCC#N.[Au+] (stereo not given) | 12.5 | 43.4 | 10.1 | > 100 | 5.12 | 30.6 | 6.33 | 31.9 | 8410 | 42.1 | 5750 | 40.8 | 6300 | 53.3 | 37.1 | > 94.6 | 3.73 | 16.3 | 10.9 | > 48.8
O=C(c1cccs1)c1nc2cc(Cl)ccc2[n+]([O-])c1C(F)(F)F | 87.4 | > 100 | > 100 | > 100 | 67.8 | > 100 | > 100 | > 100 | > 100000 | > 100 | 29600 | > 100 | > 100000 | > 100 | > 100 | > 100 | > 100 | > 100 | > 100 | > 100
CC(=O)CC(=O)NC=O |  | > 100 |  | > 100 |  | > 100 |  | > 100 |  | > 100 |  | > 100 |  | > 100 |  | > 100 |  | > 100 |  | > 100
O=C(N/C=C/C=C/Sc1ccccc1)OCc1ccccc1 |  | 42.8 |  | 34.2 |  | 29.9 |  | 31.6 |  | 42 |  | 29.7 |  | 31 |  | 64.6 |  | 41.3 |  | 34
CCCOc1ccc(/C=N/Nc2cc(C)nc3ccc(Cl)cc23)cc1 | 2.03 | 3.53 | 2.24 | 4.19 | 1.76 | 3.24 | 1.82 | 3.31 | 1560 | 2.91 | 1750 | 3.42 | 1860 | 3.42 | 1.78 | 3.18 | 1.69 | 3.35 | 2.05 | 3.55
COc1cc2c(cc1OCCCCn1c(-c3cccs3)nc3ccccc31)N=C[C@@H]1CCCN1C2=O | 2.08 | 4.5 | 1.8 | 5.48 | 1.57 | 3.08 | 2.5 | 8.65 | 1230 | 5.34 | 1040 | 3.14 | 1710 | 5.9 | 3.32 | 9.19 | 2.13 | 6.51 | 1.77 | 10.1
O=Cc1ccc(-c2ccc(-c3ccc(C=O)o3)[se]2)o1 | > 100 | > 100 | > 95.4 | > 100 | > 100 | > 100 | > 100 | > 100 | > 100000 | > 100 | 16300 | 31.1 | 53200 | > 100 | > 85.8 | > 100 | 41.7 | > 100 | 44.8 | > 100
FC(F)(F)c1ccc(-c2ncc(-c3ccc(C(F)(F)F)cc3)c(NCc3cc(C(F)(F)F)cc(C(F)(F)F)c3)n2)cc1 | 5.76 | 46.7 | 3.98 | > 100 | 3.77 | > 100 | 3.65 | > 100 | 2940 | 36.6 | 3290 | 22.6 | 3870 | > 100 | 7.03 | 55.2 | 3.76 | 83.8 | 3.57 | > 100
NC(=N\N=C/c1ccc(Cl)cc1Cl)/C(N)=N\N=C/c1ccc(Cl)cc1Cl | > 94.7 | > 100 | 50.4 | > 100 | > 69.2 | > 100 | 30.7 | > 100 | 13300 | > 83.6 | 63000 | > 100 | 1320 | 16.7 | 1.16 | 11.3 | 9.92 | 98 | 1.02 | 19
FC(F)(F)c1cc(-c2ncn(/C=C\c3nnco3)n2)cc(C(F)(F)F)c1 | 0.317 | 11.1 | 0.0462 | 10.1 | 0.189 | 6.76 | 0.417 | > 100 | 151 | > 100 | 38.1 | 0.445 | 86.9 | > 32.3 | 0.223 | > 67.3 | 0.0383 | 23.6 | 0.0402 | 15.6
